Experimental data taken from US20220184071A1, “GEPOTIDACIN FOR USE IN THE TREATMENT OF BACTERIAL URINARY TRACT INFECTIONS” (GlaxoSmithKline Intellectual Property Development Limited, priority 2019, published 2022).
≈ marks a conversion by molar mass, not a printed value. Like-named read-outs stand apart in the source and are kept apart here.

Tests used:
[1] = test system: Staphylococcus saprophyticus; assay: MIC by CLSI broth microdilution, Example 1 Method 1; type: cell-based
Protocol: Unless otherwise stated, the Clinical and Laboratory Standards Institute (CLSI) recommended procedure is as set out in the edition of CLSI Approved Standard […]. Methods for Dilution Antimicrobial Susceptibility Tests for Bacteria That Grow Aerobically” at the time of testing. Antimicrobial activity was determined by broth microdilution using the CLSI recommended procedure. Gepotidacin was tested in serial two-fold dilutions and the minimum inhibitory concentration (MIC) was determined as the lowest concentration of the compound that inhibited visible growth. Gepotidacin was tested against 28 strains of Staphylococcus saprophyticus collected from multiple hospitals. Amoxicillin, azithromycin, levofloxacin and cefuroxime were included as comparators. MICs for gepotidacin and comparators were determined by broth microdilution according to CLSI methods.

[2] = test system: Proteus hauseri and Proteus peneri; assay: MIC by CLSI agar dilution, Example 1 Method 2; type: cell-based; details: at least one strain of every organism listed
Protocol: Antimicrobial activity was determined in a second study by […] using the CLSI recommended procedure in serial two-fold dilutions and the minimum inhibitory concentration (MIC) was determined as the lowest concentration of the compound that inhibited visible growth. Amikacin, ceftazidime, colistin, fosfomycin, levofloxacin, meropenem, nitrofurantoin and trimethoprim-sulfamethoxazole were included as comparators. MICs for and comparators were determined by agar dilution according CLSI methods. In addition, gepotidacin and all of the aforementioned comparators identified in this method were evaluated against gram-negative aerobic organisms selected from Proteus hauseri and Proteus […]. Gepotidacin was tested in at least one exemplified salt.

[3] = test system: A. baumannii; assay: MIC by CLSI agar dilution, Example 1 Method 2; type: cell-based, Acinetobacter baumannii; details: n = 60
Protocol: Antimicrobial activity was determined in a second study by […] using the CLSI recommended procedure in serial two-fold dilutions and the minimum inhibitory concentration (MIC) was determined as the lowest concentration of the compound that inhibited visible growth.
MICs were determined according to CLSI agar dilution guidelines.

[4] = test system: E. coli; assay: MIC of the isolates used in the murine models; type: cell-based, Escherichia coli
[5] = test system: Bacteroides spp.; assay: MIC by CLSI agar dilution, Example 6 Method 1; type: cell-based; details: for Gepotidacin MIC range: agar dilution
Protocol: (§1) Antimicrobial activity was determined by agar dilution using the Clinical and Laboratory Standards Institute (CLSI) recommended procedure.
(§2) The compounds were tested in serial two-fold dilutions and the minimum inhibitory concentration (MIC) was determined as the lowest concentration of the compound that inhibited visible growth. Gepotidacin was tested against 333 gram-negative anaerobic and 203 gram-positive anaerobic isolates collected from clinical samples in North America and Europe from 2000 to 2017; the majority collected from 2013 to 2016.
(§3) Ceftriaxone, clindamycin, imipenem, metronidazole, moxifloxacin and piperacillin/tazobactam were included as comparators.
(§4) Additional analysis was performed from the results of the study described in Method 1 above, to determine the in vitro activity of gepotidacin against gram-negative and gram-positive anaerobic organisms with resistance to ceftriaxone, clindamycin, imipenem, metronidazole, moxifloxacin and piperacillin/tazobactam.

[6] = test system: Bifidobacterium spp.; assay: MIC by CLSI agar dilution, Example 6 Method 1; type: cell-based
Protocol: as §1, §2, §3, §4

[7] = test system: Clostridium difficile; assay: MIC by CLSI agar dilution, Example 6 Method 1; type: cell-based
Protocol: as §1, §2, §3, §4

[8] = test system: Eggerthella lenta; assay: MIC by CLSI agar dilution, Example 6 Method 1; type: cell-based
Protocol: as §1, §2, §3, §4

[9] = test system: Eubacterium spp.; assay: MIC by CLSI agar dilution, Example 6 Method 1; type: cell-based
Protocol: as §1, §2, §3, §4

[10] = test system: Fusobacterium spp.; assay: MIC by CLSI agar dilution, Example 6 Method 1; type: cell-based
Protocol: as §1, §2, §3, §4

[11] = test system: Lactobacillus spp.; assay: MIC by CLSI agar dilution, Example 6 Method 1; type: cell-based
Protocol: as §1, §2, §3, §4

[12] = test system: Peptostreptococcus anaerobius; assay: MIC by CLSI agar dilution, Example 6 Method 1; type: cell-based; details: for Gepotidacin MIC range: 3 isolates
Protocol: as §1, §2, §3, §4

[13] = test system: Porphyromonas spp.; assay: MIC by CLSI agar dilution, Example 6 Method 1; type: cell-based; details: 26 isolates, read-out: Gepotidacin MIC90
Protocol: as §1, §2, §3, §4

[14] = test system: Prevotella spp.; assay: MIC by CLSI agar dilution, Example 6 Method 1; type: cell-based
Protocol: as §1, §2, §3, §4

[15] = test system: Sutterella wadsworthensis; assay: MIC by CLSI agar dilution, Example 6 Method 1; type: cell-based
Protocol: as §1, §2, §3, §4

[16] = test system: Veillonella spp.; assay: MIC by CLSI agar dilution, Example 6 Method 1; type: cell-based
Protocol: as §1, §2, §3, §4

[17] = test system: gram-negative and gram-positive anaerobes tested; assay: MIC by CLSI agar dilution, Example 6 Method 1; type: cell-based
Protocol: as §1, §2, §3, §4

## O=c1ccc2ncc(=O)n3c2n1C[C@H]3CN1CCC(NCc2cc3c(cn2)OCCC3)CC1 [gepotidacin, (2R)-2-({4-[(3,4-dihydro-2H-pyrano[2,3-c]pyridin-6-ylmethyl)amino]-1-piperidinyl}methyl)-1,2-dihydro-3H,8H-2a,5,8a-triazaacenaphthylene-3,8-dione]
[1]; 28 isolates
  MIC90: 0.125 µg/mL (≈ 0.279 µM)
[1]; conclusion to Methods 1 and 2
  MIC90: 0.12 µg/mL (≈ 0.268 µM)
[2]
  MIC: ≤ 8 µg/mL
[3]; Acinetobacter baumannii
  MIC50: 32 µg/mL (≈ 71.3 µM)
  MIC90: 64 µg/mL (≈ 143 µM)
[3]
  Number of Isolates at Gepotidacin MIC 8 mg/L: 7
  Number of Isolates at Gepotidacin MIC ≥16 mg/L: 53
[4]; 5 isolates: ALL, 997577, ATCC25922, IR5, NCTC13441
  range of MICs: 1 to 4 µg/mL
[4]; Strain 997577
  Gepotidacin MIC: 2 µg/mL
[4]; Strain ALL
  Gepotidacin MIC: 4 µg/mL
[4]; Strain ATCC25922
  Gepotidacin MIC: 1 µg/mL
[4]; Strain IR5
  Gepotidacin MIC: 4 µg/mL
[4]; Strain NCTC13441
  Gepotidacin MIC: 2 µg/mL
[5]; Bacteroides, 191 isolates, read-out: Gepotidacin MIC90
  MIC90: 4 µg/mL (≈ 8.92 µM)
[5]; ceftriaxone R, 100 isolates
  Gepotidacin MIC range: ≤0.015 to 32 µg/mL
[5]; clindamycin R, 53 isolates
  Gepotidacin MIC range: ≤0.015 to 32 µg/mL
[5]; moxifloxacin R, 32 isolates
  Gepotidacin MIC range: 0.25 to 32 µg/mL
[6]; Bifidobacterium, 26 isolates, read-out: Gepotidacin MIC90
  MIC90: 0.5 µg/mL (≈ 1.11 µM)
[6]; moxifloxacin R, 3 isolates
  Gepotidacin MIC range: 0.125 to 0.5 µg/mL
[7]; Clostridioides difficile ceftriaxone R, 48 isolates
  Gepotidacin MIC range: 0.5 to 4 µg/mL
[7]; Clostridioides difficile clindamycin R, 23 isolates
  Gepotidacin MIC range: 0.5 to 2 µg/mL
[7]; Clostridioides difficile imipenem R, 2 isolates
  Gepotidacin MIC range: 1 µg/mL
[7]; Clostridioides difficile moxifloxacin R, 37 isolates
  Gepotidacin MIC range: 0.5 to 8 µg/mL
[7]; Clostridioides difficile, 100 isolates, read-out: Gepotidacin MIC90
  MIC90: 2 µg/mL (≈ 4.46 µM)
[8]; Eggerthella lenta, 21 isolates, read-out: Gepotidacin MIC90
  MIC90: 4 µg/mL (≈ 8.92 µM)
[8]; ceftriaxone R, 19 isolates
  Gepotidacin MIC range: 0.06 to 32 µg/mL
[8]; clindamycin R, 3 isolates
  Gepotidacin MIC range: 1 to 4 µg/mL
[8]; moxifloxacin R, 6 isolates
  Gepotidacin MIC range: 1 to 32 µg/mL
[9]; Eubacterium, 31 isolates, read-out: Gepotidacin MIC90
  MIC90: 2 µg/mL (≈ 4.46 µM)
[9]; moxifloxacin R, 3 isolates
  Gepotidacin MIC range: 0.25 to 2 µg/mL
[10]; Fusobacterium, 25 isolates, read-out: Gepotidacin MIC90
  MIC90: 2 µg/mL (≈ 4.46 µM)
[10]; clindamycin R, 2 isolates
  Gepotidacin MIC range: 0.25 to 2 µg/mL
[11]; Lactobacillus, 91 isolates, read-out: Gepotidacin MIC90
  MIC90: 1 µg/mL (≈ 2.23 µM)
[11]; clindamycin R, 3 isolates
  Gepotidacin MIC range: 0.03 to 1 µg/mL
[11]; imipenem R, 27 isolates
  Gepotidacin MIC range: 0.03 to 1 µg/mL
[12]; Peptostreptococcus anaerobius, 25 isolates, read-out: Gepotidacin MIC90
  MIC90: 0.03 µg/mL (≈ 0.0669 µM)
[12]; clindamycin R
  Gepotidacin MIC range: ≤0.015 to 0.03 µg/mL
[12]; moxifloxacin R
  Gepotidacin MIC range: 0.03 µg/mL
[13]
  MIC90: 1 µg/mL (≈ 2.23 µM)
[14]; Prevotella, 30 isolates, read-out: Gepotidacin MIC90
  MIC90: 4 µg/mL (≈ 8.92 µM)
[14]; ceftriaxone R, 6 isolates
  Gepotidacin MIC range: 0.25 to 2 µg/mL
[14]; clindamycin R, 7 isolates
  Gepotidacin MIC range: 0.25 to 4 µg/mL
[15]; Sutterella wadsworthensis, 10 isolates, read-out: Gepotidacin MIC90
  MIC90: 1 µg/mL (≈ 2.23 µM)
[15]; metronidazole R, 4 isolates
  Gepotidacin MIC range: 0.5 to 1 µg/mL
[16]; Veillonella, 25 isolates, read-out: Gepotidacin MIC90
  MIC90: 0.12 µg/mL (≈ 0.268 µM)
[16]; clindamycin R, 5 isolates
  Gepotidacin MIC range: 0.125 µg/mL
[16]; moxifloxacin R, 3 isolates
  Gepotidacin MIC range: ≤0.015 to 0.03 µg/mL
[17]
  MIC: ≤ 2 µg/mL
[17]; 333 gram-negative and 203 gram-positive anaerobic isolates, per pathogen group
  MIC90: ≤ 4 µg/mL
[17]; Bacteroides caccae, read-out: MICs
  MIC: ≤ 4 µg/mL
